Test systems include T-47D breast; NCI-H522 lung; DU-145 prostate; MDA-MB-231 breast; UACC-62 melanoma; SK-MEL-5 melanoma; NCI-H226 lung; A549 NSCLC; OVCAR-3 ovarian; ACHN renal.
Common to all, as to test: growth of human tumour cells (NCI), 48 h

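Compound exposure: 48 hours, 5 concentrations, 96-well plates. GI50 is the concentration that inhibits growth by half. TGI marks complete inhibition of growth.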 Some results are limits rather than exact numbers.

The values below come from PubChem BioAssay (NCI).

On to `COc1cccc2c1C(=O)c1c(O)c3c(c(O)c1C2=O)C[C@@](O)(C(=O)CO)C[C@@H]3O[C@H]1C[C@H](N)[C@@H](O)[C@H](C)O1`, for which the GI50 in the assay on T-47D breast is 0.128 µM; with NCI-H522 lung, 0.101 µM; in the assay with DU-145 prostate, 0.159 µM; in the assay with MDA-MB-231 breast, 0.595 µM; with UACC-62 melanoma it was 0.0847 µM; with NCI-H226 lung, 0.068 µM. Besides, the GI50 was 0.05 µM in the assay on A549 NSCLC and 0.613 µM with OVCAR-3 ovarian. Further, the TGI is 3.19 µM in the assay on T-47D breast; 0.89 µM in the assay with NCI-H522 lung; 5.8 µM in the assay with DU-145 prostate; 12.1 µM in the assay on MDA-MB-231 breast; 0.498 µM with UACC-62 melanoma; 0.623 µM in the assay with SK-MEL-5 melanoma. The values for the TGI in the assay on NCI-H226 lung, with A549 NSCLC and with OVCAR-3 ovarian were 0.222 µM, 1.22 µM and 13.4 µM, respectively.

Consider `O=C1C=CC[C@H](/C=C/c2ccccc2)O1`, for which the GI50 with T-47D breast was 6.29 µM; in the assay on NCI-H522 lung, 2.72 µM; in the assay on DU-145 prostate, 2.82 µM; with MDA-MB-231 breast, 5.42 µM; in the assay with UACC-62 melanoma it was 4.84 µM; in the assay with ACHN renal it was 4.04 µM. Besides, the GI50 was 3.39 µM in the assay with SK-MEL-5 melanoma, 0.787 µM with NCI-H226 lung, 3.56 µM in the assay on A549 NSCLC and 1.94 µM with OVCAR-3 ovarian. In addition, the TGI in the assay with T-47D breast is 37.7 µM; in the assay with NCI-H522 lung, above 25.4 µM; in the assay with DU-145 prostate it was 9.07 µM; with MDA-MB-231 breast it was 32.4 µM; in the assay on UACC-62 melanoma, 19 µM; with ACHN renal it was 16.6 µM. For the same compound, the TGI was 16.6 µM with SK-MEL-5 melanoma, 4.31 µM with NCI-H226 lung, above 100 µM with A549 NSCLC and 7.31 µM in the assay on OVCAR-3 ovarian.

`COC(=O)C1CCCN1C(=O)[C@@H]1CCCN1C(=O)[C@H](Cc1c[nH]c2ccccc12)NC(=S)Nc1cc(C(F)(F)F)cc(C(F)(F)F)c1` (some centres not stated): the GI50 was 1.98 µM with T-47D breast; 2.15 µM with NCI-H522 lung; 2.52 µM in the assay with DU-145 prostate; 1.62 µM in the assay with MDA-MB-231 breast; 1.7 µM with UACC-62 melanoma; 2.63 µM with SK-MEL-5 melanoma. The GI50 was 2.26 µM in the assay with NCI-H226 lung, 1.98 µM in the assay on A549 NSCLC and 2.03 µM in the assay on OVCAR-3 ovarian. Besides, the TGI with T-47D breast came out at 7.2 µM; with NCI-H522 lung it was 4.99 µM; in the assay on DU-145 prostate, 6.47 µM; in the assay on MDA-MB-231 breast, 3.4 µM; with UACC-62 melanoma it was 4.08 µM; with SK-MEL-5 melanoma, 7.61 µM. In addition, the TGI in the assay with NCI-H226 lung was determined as 8.01 µM; in the assay with A549 NSCLC it was 6.92 µM; in the assay with OVCAR-3 ovarian, 3.85 µM.

As for `CN1C(=O)C(CC(=O)O)NC1=S` (configuration not stated), the TGI in the assay with T-47D breast, in the assay on NCI-H522 lung, with DU-145 prostate, in the assay with MDA-MB-231 breast, with UACC-62 melanoma and in the assay on ACHN renal was above 100 µM in each case. The TGI with SK-MEL-5 melanoma, in the assay on A549 NSCLC and in the assay with OVCAR-3 ovarian was above 100 µM in each case.

For `O=Cc1ccccc1B(O)O`, the TGI with T-47D breast is 62.4 µM; in the assay on NCI-H522 lung, 97.9 µM; in the assay on MDA-MB-231 breast, above 100 µM; in the assay with UACC-62 melanoma, above 100 µM; in the assay on ACHN renal, above 100 µM; with NCI-H226 lung, above 100 µM. The results for the TGI with A549 NSCLC and in the assay with OVCAR-3 ovarian were 38.5 µM and above 100 µM, respectively.

In the case of `COC(=O)[C@]12CC=C3O[C@@H]4OC5(CCCCC5)O[C@@H]4C3[C@@H]1C(=O)CCC2=O` (some centres not stated), the TGI in the assay with NCI-H522 lung, with UACC-62 melanoma, in the assay on ACHN renal, in the assay on SK-MEL-5 melanoma, in the assay with NCI-H226 lung and with A549 NSCLC was above 100 µM each time. The same compound returned a TGI in the assay with OVCAR-3 ovarian above 100 µM.

With `Fc1ccccc1C1SCc2nc3ccccc3n21` (configuration not stated), the TGI in the assay with NCI-H522 lung is above 100 µM; with UACC-62 melanoma, above 100 µM; in the assay with ACHN renal it was above 100 µM; in the assay on SK-MEL-5 melanoma it was 42.9 µM; in the assay with NCI-H226 lung it was above 100 µM; in the assay with A549 NSCLC, above 100 µM. This compound yielded a TGI in the assay with OVCAR-3 ovarian above 100 µM.

Consider `CC[C@@]1(OC(=O)CN)C(=O)OCc2c1cc1n(c2=O)Cc2cc3c(N)cccc3nc2-1`, for which the GI50 was below 0.01 µM in the assay with T-47D breast; below 0.01 µM with NCI-H522 lung; 1.43 µM in the assay with MDA-MB-231 breast; below 0.01 µM in the assay with ACHN renal; 0.0216 µM in the assay with NCI-H226 lung; below 0.0129 µM in the assay on A549 NSCLC. The GI50 in the assay on OVCAR-3 ovarian was 0.0749 µM. For the same compound, the TGI in the assay with T-47D breast was above 100 µM; in the assay on NCI-H522 lung it was 1.31 µM; in the assay with MDA-MB-231 breast, above 21.5 µM; with ACHN renal, 0.0287 µM; in the assay on NCI-H226 lung, 0.498 µM; in the assay on A549 NSCLC it was 1.77 µM. Besides, in the assay with OVCAR-3 ovarian, the TGI was determined as 3.77 µM.

Take `COc1ccc(S(=O)(=O)Nc2cc(/C=C\c3cc(OC)c(OC)c(OC)c3)ccc2OC)cc1`: the GI50 in the assay on NCI-H522 lung is 0.0204 µM; in the assay on DU-145 prostate, 0.341 µM; in the assay with MDA-MB-231 breast, 0.399 µM; with UACC-62 melanoma, 0.049 µM; in the assay with ACHN renal, 0.0587 µM; in the assay with SK-MEL-5 melanoma it was 0.0488 µM. The results for the GI50 in the assay on NCI-H226 lung, with A549 NSCLC and with OVCAR-3 ovarian were 12.8 µM, 0.159 µM and 0.053 µM, respectively. The TGI with NCI-H522 lung is 0.0564 µM; in the assay on DU-145 prostate, above 100 µM; with MDA-MB-231 breast, above 100 µM; with UACC-62 melanoma, above 100 µM; in the assay on ACHN renal, 17.3 µM; with SK-MEL-5 melanoma, 0.778 µM. The TGI in the assay on NCI-H226 lung, in the assay on A549 NSCLC and in the assay on OVCAR-3 ovarian was above 100 µM throughout.

For the compound `CN1CC[C@]2(C)c3cc(O)ccc3CC3CCCC1C32C` (some centres not stated), the TGI in the assay on NCI-H522 lung, in the assay on UACC-62 melanoma, with ACHN renal, in the assay on SK-MEL-5 melanoma, in the assay with NCI-H226 lung and in the assay with A549 NSCLC was above 100 µM in each case. In addition, in the assay with OVCAR-3 ovarian, the TGI is above 100 µM.

Regarding `CN(C)C=[N+]=[N-]`, the TGI in the assay with NCI-H522 lung, with UACC-62 melanoma, in the assay on ACHN renal, with SK-MEL-5 melanoma, with NCI-H226 lung and with A549 NSCLC was above 100 µM each time. For the same compound, in the assay on OVCAR-3 ovarian, the TGI was above 100 µM.
